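Test compounds were applied to cells in 96-well plates for 48 hours at 5 doses. The concentration for 50% growth inhibition is given as GI50.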 The source made the active and inactive calls. Cut-off read from the data, not from the text of the source: active = GI50 up to about 1.1 µM and inactive = higher.
What was measured:
Test in all cases: growth of human tumour cells (NCI), 48 h
DMS-273 = system: DMS-273
LXFL 529 = system: LXFL 529
KM-20L2 = system: KM-20L2
DLD-1 = system: DLD-1
SNB-78 = system: SNB-78
HOP-18 = system: HOP-18
RXF 631 = system: RXF 631
M19-MEL = system: M19-MEL
XF498 = system: XF498

Measured: GI50

O=C(N/N=C/c1ccccc1O)N/N=C/c1ccccc1O
inactive: DMS-273 > 100 µM | LXFL 529 > 100 µM | KM-20L2 > 100 µM | DLD-1 > 100 µM | SNB-78 > 100 µM | HOP-18 > 100 µM | RXF 631 > 100 µM | M19-MEL > 100 µM | XF498 > 100 µM

CN1C(=O)CC2(C)c3cc(C=O)ccc3N(C)C12 (stereo not given)
inactive: LXFL 529 > 100 µM | KM-20L2 > 100 µM | DLD-1 > 100 µM | SNB-78 > 100 µM | HOP-18 > 100 µM | RXF 631 > 100 µM | M19-MEL > 100 µM | XF498 > 100 µM

CC(C)(C)NNC(=O)/C(=C/c1ccc(Oc2ccc(Cl)c(Cl)c2)cc1)NC(=O)c1ccccc1
inactive: DMS-273 21.5 µM | LXFL 529 > 100 µM | KM-20L2 95.3 µM | DLD-1 31.1 µM | SNB-78 > 100 µM | HOP-18 > 100 µM | RXF 631 34 µM | M19-MEL > 100 µM | XF498 > 100 µM

COC(=O)C1CCC(N2C(=O)CCC2C(=O)OC)=N1 (stereo not given)
inactive: DMS-273 > 100 µM | LXFL 529 > 100 µM | KM-20L2 > 100 µM | DLD-1 > 100 µM | SNB-78 > 100 µM | HOP-18 > 100 µM | RXF 631 > 100 µM | M19-MEL > 100 µM | XF498 > 100 µM

Source: ChEMBL document CHEMBL1201862, “PubChem BioAssay data set” (2004)
